Test results: patent US20240122865A1, “Methods of Protecting RNA” (Pfizer Inc., priority 2021, published 2024)

Legend:
Format in all cases: biochemical, Trichoderma atroviride
[1] = system: FgenL model RNA; experiment: TapeStation Assay, FgenL model RNA; set-up: Conc. FgenL#1 / Conc. FgenL#2: unit not given here; details: for % Control N = 1 / % Control N = 2 / % Control Average: FgenL RNA, 20 mM amino acids, 50 mM CAPS pH 11, 50° C. 15 min; for % Control N = 1 / % Control N = 2: vs Time 0; for % Control Average: vs Time 0, Avg N=2; for Conc. FgenL#1 / Conc. FgenL#2: intact FgenL RNA after 15 min at 50° C.; for Conc. FgenL#1: 20 mM amino acids in 50 mM CAPS pH 11, run #1; for Conc. FgenL#2: 20 mM amino acids in 50 mM CAPS pH 11, run #2
Method: (§1) These assays were performed with amino acids and compared to a no-degradation baseline control to gauge degree of protection imparted by the amino acid. Multiple functional assay approaches were used where differing endpoints were measured including a droplet digital PCR (ddPCR) assay where intact RNA sequence was quantitated, a size exclusion base hydrolysis degradation assay that used a size exclusion column to determine the degree of degradation occurring to an mRNA construct, and finally, a TapeStation assay that utilizes capillary electrophoresis and optical detection to measure intact RNA. […] Affinity selection by mass spectrometry (ASMS), native electrospray ionization mass spectrometry (nESI-MS) and nuclear magnetic resonance (NMR) may be used as several complementary approaches to ascertain compound binding to RNA. The latter techniques utilize MS to measure mass of bound compound alone (ASMS), or mass of RNA and bound compound (nESI-MS). The nESI-MS and NMR studies may be conducted to provide direct analytical quantification of resulting complex via measurement of mass (nESI-MS) or chemical shifts (NMR). The ASMS experiment is conducted to determine saturation binding of the compound to RNA where resulting apparent binding constants (KD,App) may be generated. Further descriptions of the functional and binding assays are provided in the section below.
(§2) In principle, samples are loaded to the instrument where electrophoresis separates component RNA's on the basis of mass, and subsequently analyzes these optically as they travel through the capillary.
(§3) RNA samples were diluted to the appropriate concentration to fall within the linear range of detection for the RNA ScreenTape Assay. Model Chi18 or FgenL RNAs were diluted to 50 ng/μL in 50 mM CAPS buffer pH 11. Amino acid stocks were made up in 50 mM CAPS pH 11 and re-adjusted to >pH 11 after solubilization. […] The samples were aliquoted to PCR tubes for each time point (Time 0 or 15 minutes). Degradation reaction: Samples were incubated at 50° C. for 0 to 15 minutes in a thermocycler, removed at the appropriate time point and placed on ice. Time 0 samples remained on ice.

[2] = system: Chi18 model RNA; experiment: TapeStation Assay, Chi18 model RNA; set-up: Conc. chi18#1 / Conc. chi18#2: unit not given here; details: for % Control N = 1 / % Control N = 2 / % Control Avg.: Chi18 RNA, 20 mM amino acids, 50 mM CAPS pH 11, 50° C. 15 min; for % Control N = 1 / % Control N = 2: vs Time 0; for % Control Avg.: vs Time 0, Avg N=2; for Conc. chi18#1: 20 mM amino acids in 50 mM CAPS pH 11, run #1
Method: as §1, §2, §3

[3] = system: FgenL model RNA; details: percent protection, pH 11.0, 44° C., 16 hours, n = 2
Method: (§4) The ddPCR assays measure RNA integrity by converting intact RNA to cDNA by reverse transcription, then performing digital PCR in thousands of nanoliter-sized droplets for each sample. PCR is performed within each droplet, which allows for more sensitive detection of subtle changes in RNA concentration compared to traditional PCR or qPCR. Additionally, primers/probes specific to the 5′ end of the RNA/cDNA transcript(s) are used to assess fragment integrity—e.g. degraded RNA will have fewer 5′ positive droplets. The BioRad QX200 Droplet Digital PCR System was used for the ddPCR workflow.
(§5) Basic assay procedure: RNA samples (Chi18 or FgenL fragments) were diluted to 25 fg/μL or 10 fg/μL, respectively, in 50 mM […] buffer pH 11.0. Amino acid stocks were made up in 50 mM CAPS buffer, pH 11.0 and subsequently re-adjusted to pH 11.0, post solubilization. Amino acid stocks were tested in a dose-response format to determine EC50. An amino acid dilution plate containing a ˜300 mM (or appropriate) top-concentration of amino acid in 50 mM CAPS buffer was serially (half-log) diluted for 10 times. 0.6 μL of this compound dilution plate was spotted into a 96-well PCR plate (Thermo). Sample RNAs were added (6 μL) and incubated with test amino acid as described below.
(§6) Degradation reaction: Treated RNAs were incubated for 16 hours at 30° C. for Chi18 samples or 44° C. for FgenL samples. Upon completion of the degradation reaction, cDNA was made from the intact RNA by Reverse Transcription and ddPCR run for each sample (96 well plates). Positive 5′ droplet values were divided by the total accepted droplet values for each sample and a ratio value generated for each sample.
(§7) EC50 was determined by using a four parameter logistic equation: Y=A+((B−A)/(1+(C/X)D)); where Y is percent protection, X is compound concentration, A and B are minimum and maximum asymptotes, respectively, C is EC50, and D is Hill slope.

[4] = target: Chi18 model RNA; experiment: Droplet Digital Polymerase Chain Reaction (ddPCR) Assay, Chi18; details: percent protection, pH 11.0, 30° C., 16 hours, n = 2
Method: as §4, §5, §6, §7

[5] = intact Chi18 RNA after 15 min at 50° C.

Structure (SMILES)	% Control N = 1 [1]	% Control N = 2 [1]	% Control Average [1]	Conc. FgenL#1 [1]	Conc. FgenL#2 [1]	% Control N = 1 [2]	% Control N = 2 [2]	% Control Avg. [2]	Conc. chi18#1 [2, 5]	EC50 [3]	EC50 [4]	Conc. chi18#2 ([2]; intact Chi18 RNA after 15 min at 50° C., 20 mM amino acids in 50 mM CAPS pH 11, run #2)
O[C@H](CS)[C@H](O)CS (racemic) [DTT, dithiothreitol]	8.3%	9.0%	8.7%	2.86	3.13	10.7%	10.7%	10.7%	5.68	–	–	–
N[C@@H](CSSC[C@H](N)C(=O)O)C(=O)O [Cystine]	75.9%	64.6%	70.2%	26.2	22.4	53.1%	42.7%	47.9%	28.3	> 30 mM	> 29 mM	22.6
O=C(O)CCP(CCC(=O)O)CCC(=O)O [TCEP, tris(2-carboxyethyl)phosphine]	5.0%	4.0%	4.5%	1.71	1.38	2.6%	2.6%	2.6%	1.41	> 30 mM	> 30 mM	–
